One data set relates to PANC-1 pERK. In words: Phospho-ERK 1/2 assay. In kind it is cell-based. As to conditions: Homo sapiens, PANC-1, 3 h, PANC-1 cells, 3 hours incubation with compound. Here is the method: Allow PNAC-1 cell growth in a T75 flask in DMEM and 10% 1 fetal calf serum (FCS; Gibco®), using standard tissue culture procedures until ~80% confluency is achieved. Day 1, seed 6000 cells/well in 384 well plate and incubate at 37° C., 5% CO2. Add diluted compound by Echo 550, final DMSO is 0.5%, incubate cells at 37° C., 5% CO2 for 3 hours. Then, remove medium and fix cells with 3.7% formaldehyde in PBS (PFA) by Apricot. Wash with PBS once. Permeabilize cells with cold 100% methanol and repeat wash once with PBS once. Add Li-Cor blocking buffer to each well and incubate 1.5 hours at RT. Remove blocking buffer and add primary antibody mixture (rabbit anti pERK, mouse anti GAPDH). Incubate at 4° C. overnight. Day 2, wash with PBST (Tween-20 in PBS) with total 3 times and then add secondary antibody mixture (goat anti rabbit 800CW (1:800 dilution in the combined solution) and goat anti mouse 680RD (1:800 dilution in the combined solution)), incubate for 60 minutes at RT away from light. Repeat washing with PBST 3 times. After final wash, centrifuge plate up-side-down at 1000 rpm to remove wash solution completely from wells. Before plate scanning, clean the bottom plate surface and the Odyssey® Imager scanning bed (if applicable) with moist, lint-free tissue to avoid any obstructions during scanning. Scan plate with detection in both 700 and 800 nm channels.
T1 sequence (P08183 whole entry): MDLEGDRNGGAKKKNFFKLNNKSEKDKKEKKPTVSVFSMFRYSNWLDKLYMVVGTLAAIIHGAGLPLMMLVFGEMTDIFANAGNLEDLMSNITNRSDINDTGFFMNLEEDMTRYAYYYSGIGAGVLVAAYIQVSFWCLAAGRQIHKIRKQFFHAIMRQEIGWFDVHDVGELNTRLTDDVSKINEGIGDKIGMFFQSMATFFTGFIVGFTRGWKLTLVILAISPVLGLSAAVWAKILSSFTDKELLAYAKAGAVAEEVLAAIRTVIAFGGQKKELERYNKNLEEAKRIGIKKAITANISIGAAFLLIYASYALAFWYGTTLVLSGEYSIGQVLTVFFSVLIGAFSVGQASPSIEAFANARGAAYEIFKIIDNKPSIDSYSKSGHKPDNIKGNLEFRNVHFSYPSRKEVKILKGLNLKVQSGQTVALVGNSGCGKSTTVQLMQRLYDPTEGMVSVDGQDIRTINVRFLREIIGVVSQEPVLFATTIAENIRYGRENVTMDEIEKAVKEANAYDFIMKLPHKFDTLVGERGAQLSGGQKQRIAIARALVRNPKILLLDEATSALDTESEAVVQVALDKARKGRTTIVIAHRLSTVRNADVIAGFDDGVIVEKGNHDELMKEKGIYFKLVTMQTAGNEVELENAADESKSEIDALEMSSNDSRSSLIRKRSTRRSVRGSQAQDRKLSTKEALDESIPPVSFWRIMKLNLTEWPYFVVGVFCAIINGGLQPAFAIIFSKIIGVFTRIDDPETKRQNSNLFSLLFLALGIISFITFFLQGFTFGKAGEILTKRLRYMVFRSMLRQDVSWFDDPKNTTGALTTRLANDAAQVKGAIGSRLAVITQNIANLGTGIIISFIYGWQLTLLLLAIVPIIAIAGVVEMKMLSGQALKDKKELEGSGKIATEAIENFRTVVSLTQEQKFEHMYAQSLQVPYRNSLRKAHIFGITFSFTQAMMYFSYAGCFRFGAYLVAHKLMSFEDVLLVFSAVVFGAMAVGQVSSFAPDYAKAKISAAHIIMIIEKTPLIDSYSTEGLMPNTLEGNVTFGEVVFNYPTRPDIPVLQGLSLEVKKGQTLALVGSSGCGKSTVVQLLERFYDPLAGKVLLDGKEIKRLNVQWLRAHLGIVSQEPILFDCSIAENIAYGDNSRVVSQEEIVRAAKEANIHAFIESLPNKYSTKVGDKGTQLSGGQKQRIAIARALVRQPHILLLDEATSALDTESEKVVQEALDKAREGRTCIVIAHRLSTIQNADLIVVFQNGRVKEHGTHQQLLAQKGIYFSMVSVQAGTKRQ
In the case of `C#Cc1c(F)ccc2cc(O)cc(-c3nc4c5c(cc(OC[C@@]67CCCN6CC(=C)C7)nc5c3F)N3C[C@H]5CC[C@H](N5)[C@H]3CO4)c12` [Example 2, 5-ethynyl-6-fluoro-4-((5aS,6S,9R)-1-fluoro-13-(((S)-2-methylenetetrahydro-1H-pyrrolizin-7a (5H)-yl)methoxy)-5a,6,7,8,9,10-hexahydro-5H-6,9-epiminoazepino[2′,1′: 3,4][1,4]oxazepino[5,6,7-de][1,6]naphthyridin-2-yl)naphthalen-2-ol], the IC50 was determined as 14 nM.

Take `C#Cc1c(F)ccc2cc(O)cc(-c3nc4c5c(cc(OCC67CC(=C)CN6CC(=C)C7)nc5c3F)N3C[C@H]5CC[C@H](N5)[C@H]3CO4)c12` [Example 4, 4-((5aS,6S,9R)-13-((2,6-dimethylenetetrahydro-1H-pyrrolizin-7a (5H)-yl)methoxy)-1-fluoro-5a,6,7,8,9,10-hexahydro-5H-6,9-epiminoazepino[2′,1′: 3,4][1,4]oxazepino[5,6,7-de][1,6]naphthyridin-2-yl)-5-ethynyl-6-fluoronaphthalen-2-ol]: the IC50 came to 34 nM.

As to `C=C1CN2CCC[C@@]2(COc2cc3c4c(nc(-c5cc(O)cc6ccc(F)c(CC)c56)c(F)c4n2)OC[C@@H]2[C@@H]4CC[C@H](CN32)N4)C1` [Example 40, 5-ethyl-6-fluoro-4-((5aS,6S,9R)-1-fluoro-13-(((S)-2-methylenetetrahydro-1H-pyrrolizin-7a (5H)-yl)methoxy)-5a,6,7,8,9,10-hexahydro-5H-6,9-epiminoazepino[2′,1′: 3,4][1,4]oxazepino[5,6,7-de][1,6]naphthyridin-2-yl)naphthalen-2-ol], the half-inhibitory concentration (IC50) came out at 16 nM.

As to `C#Cc1c(F)ccc2cccc(-c3nc4c5c(cc(OC[C@@]67CCCN6CC(=C)C7)nc5c3F)N3C[C@H]5CC[C@H](N5)[C@H]3CO4)c12` [Example 78, (5aS,6S,9R)-2-(8-ethynyl-7-fluoronaphthalen-1-yl)-1-fluoro-13-(((S)-2-methylenetetrahydro-1H-pyrrolizin-7a (5H)-yl)methoxy)-5a,6,7,8,9,10-hexahydro-5H-6,9-epiminoazepino[2′,1′: 3,4][1,4]oxazepino[5,6,7-de][1,6]naphthyridine], the half-maximal inhibitory concentration (IC50) is 464 nM.

Consider `C#Cc1c(F)ccc2cc(O)cc(-c3nc4c5c(cc(OC[C@@]67CCCN6C[C@H](F)C7)nc5c3F)N3C[C@H]5CC[C@H](N5)[C@H]3[C@H](C)O4)c12` [Example 565, 5-ethynyl-6-fluoro-4-((5S,5aS,6S,9R)-1-fluoro-13-(((2R,7aS)-2-fluorotetrahydro-1H-pyrrolizin-7a (5H)-yl)methoxy)-5-methyl-5a,6,7,8,9,10-hexahydro-5H-6,9-epiminoazepino[2′,1′: 3,4][1,4]oxazepino[5,6,7-de][1,6]naphthyridin-2-yl)naphthalen-2-ol], for which the half-maximal inhibitory concentration (IC50) turned out to be 1.2 nM.

Regarding `C#Cc1c(F)ccc2cc(O)cc(-c3nc4c5c(cc(OCC67CCCN6CC(=C)C7)nc5c3F)N3C[C@H]5CC[C@H](N5)[C@H]3[C@H](C)O4)c12` (some centres unmarked) [Example 566], the IC50 came to 2.9 nM.

Consider `C#Cc1c(F)ccc2cc(O)cc(-c3nc4c5c(cc(OCC67CC(=C)CN6CC(=C)C7)nc5c3F)N3C[C@H]5CC[C@H](N5)[C@H]3[C@H](C)O4)c12` [Example 567], for which the concentration for half-maximal inhibition (IC50) was found to be 0.95 nM.

Take `CCc1c(F)ccc2cc(O)cc(-c3nc4c5c(cc(OC[C@@]67CCCN6C[C@H](F)C7)nc5c3F)N3C[C@H]5CC[C@H](N5)[C@H]3[C@H](C)O4)c12` [Example 568, 5-ethyl-6-fluoro-4-((5S,5aS,6S,9R)-1-fluoro-13-(((2R,7aS)-2-fluorotetrahydro-1H-pyrrolizin-7a (5H)-yl)methoxy)-5-methyl-5a,6,7,8,9,10-hexahydro-5H-6,9-epiminoazepino[2′,1′: 3,4][1,4]oxazepino[5,6,7-de][1,6]naphthyridin-2-yl)naphthalen-2-ol]: the IC50 came to 5.6 nM.

With `C=C1CN2CCCC2(COc2cc3c4c(nc(-c5cc(O)cc6ccc(F)c(CC)c56)c(F)c4n2)O[C@@H](C)[C@@H]2[C@@H]4CC[C@H](CN32)N4)C1` (some centres unmarked) [Example 569], the IC50 was determined as 1.7 nM.

Turning to `C=C1CN2CC(=C)CC2(COc2cc3c4c(nc(-c5cc(O)cc6ccc(F)c(CC)c56)c(F)c4n2)O[C@@H](C)[C@@H]2[C@@H]4CC[C@H](CN32)N4)C1` [Example 570], the IC50 came to 76 nM.

On to `C#Cc1c(F)ccc2cccc(-c3nc4c5c(cc(OC[C@@]67CCCN6C[C@H](F)C7)nc5c3F)N3C[C@H]5CC[C@H](N5)[C@H]3[C@H](C)O4)c12` [Example 571], for which the IC50 turned out to be 17 nM.

With `C#Cc1c(F)ccc2cccc(-c3nc4c5c(cc(OCC67CCCN6CC(=C)C7)nc5c3F)N3C[C@H]5CC[C@H](N5)[C@H]3[C@H](C)O4)c12` (some centres unmarked) [Example 572], the IC50 amounted to 14 nM.

For `Cc1cc(N)nc(-c2nc3c4c(cc(OC[C@@]56CCCN5C[C@H](F)C6)nc4c2F)N2C[C@H]4CC[C@H](N4)[C@H]2[C@H](C)O3)c1C(F)(F)F` [Example 574], the half-inhibitory concentration (IC50) is 33 nM.

On to `CCc1c(F)ccc2cc(O)cc(-c3nc4c5c(cc(OC[C@@]67CCCN6C/C(=C\F)C7)nc5c3F)N3C[C@H]5CC[C@H](N5)[C@H]3[C@H](C)O4)c12` [Example 601], for which the IC50 came out at 8.2 nM.

For `C#Cc1c(F)ccc2cc(O)cc(-c3nc4c5c(cc(OC[C@@]67CCCN6C/C(=C\F)C7)nc5c3F)N3C[C@H]5CC[C@H](N5)[C@H]3[C@H](C)O4)c12` [Example 602], the IC50 stood at 1.5 nM.

Take `C#Cc1c(F)ccc2cccc(-c3nc4c5c(cc(OC[C@@]67CCCN6C/C(=C/F)C7)nc5c3F)N3C[C@H]5CC[C@H](N5)[C@H]3[C@H](C)O4)c12` [Example 603]: the concentration for half-maximal inhibition (IC50) was 48 nM.

With `C#Cc1c(F)ccc2cccc(-c3nc4c5c(cc(OC[C@@]67CCCN6CC6(CC6(F)F)C7)nc5c3F)N3C[C@H]5CC[C@H](N5)[C@H]3[C@H](C)O4)c12` (some centres unmarked) [Example 604], the IC50 stood at 184 nM.

On to `C=C1CN2CCC[C@@]2(COc2cc3c4c(nc(-c5cccc6ccc(F)c(CC)c56)c(F)c4n2)O[C@@H](C)[C@@H]2[C@@H]4CC[C@H](CN32)N4)C1` [Example 606], for which the IC50 came out at 246 nM.

In the case of `C#Cc1c(F)ccc2cccc(-c3nc4c5c(cc(OC[C@]67CC(=C)CN6C[C@@H](F)C7)nc5c3F)N3C[C@H]5CC[C@H](N5)[C@H]3[C@H](C)O4)c12` [Example 607], the concentration for half-maximal inhibition (IC50) turned out to be 198 nM.

As for `C#Cc1c(F)ccc2cccc(-c3nc4c5c(cc(OC[C@@]67CC(=C)CN6C[C@H](F)C7)nc5c3F)N3C[C@H]5CC[C@H](N5)[C@H]3[C@H](C)O4)c12` [Example 608], the half-maximal inhibitory concentration (IC50) was determined as 251 nM.

Regarding `C#Cc1c(F)ccc2cccc(-c3nc4c5c(cc(OC[C@@]67CC(=C)CN6C[C@H](OC)C7)nc5c3F)N3C[C@H]5CC[C@H](N5)[C@H]3[C@H](C)O4)c12` [Example 609], the IC50 was 9.6 nM.

Take `C#Cc1c(F)ccc2cccc(-c3nc4c5c(cc(OCC6(CN7CCOC[C@H]7C)CC6)nc5c3F)N3C[C@H]5CC[C@H](N5)[C@H]3[C@H](C)O4)c12` [Example 611]: the IC50 is 14 nM.

In the case of `Cc1cc(N)nc(-c2c(F)c3c4c(cc(OCC5(CN6CCOC[C@H]6C)CC5)nc4c2F)N2C[C@H]4CC[C@H](N4)[C@H]2[C@H](C)O3)c1C(F)(F)F` [Example 613a], the half-inhibitory concentration (IC50) was determined as 111 nM.

For `C#Cc1c(F)ccc2cc(O)cc(-c3nc4c5c(cc(OC[C@@]67CCCN6C[C@H](F)C7)nc5c3F)N3C[C@@]5(C)CC[C@H](N5)[C@H]3[C@H](C)O4)c12` [Example 614], the half-maximal inhibitory concentration (IC50) came out at 8.1 nM.

Consider `CCc1c(F)ccc2cc(O)cc(-c3nc4c5c(cc(OC[C@@]67CCCN6C[C@H](F)C7)nc5c3F)N3C[C@@]5(C)CC[C@H](N5)[C@H]3[C@H](C)O4)c12` [Example 615], for which the IC50 was 25 nM.

Staying with this data set, now noted: PANC-1 cells, 3 hours incubation with compound.
Consider `C#Cc1c(F)ccc2cc(O)cc(-c3c(F)c4c5c(cc(OC[C@@]67CCCN6C[C@H](F)C7)nc5c3F)N3C[C@H]5CC[C@H](N5)[C@H]3[C@H](C)O4)c12` (single isomer, unassigned) [Example 577a], for which the 50% inhibitory concentration (IC50) came out at 0.68 nM.

Consider `C#Cc1c(F)ccc2cc(O)cc(-c3c(F)c4c5c(cc(OC[C@@]67CCCN6C[C@H](F)C7)nc5c3F)N3C[C@H]5CC[C@H](N5)[C@H]3[C@H](C)O4)c12` (single isomer, unassigned) [Example 577b], for which the IC50 is 23.1 nM.

Turning to `C#Cc1cccc2cccc(-c3nc4c5c(cc(OC[C@@]67CCCN6CC(=C)C7)nc5c3F)N3C[C@H]5CC[C@H](N5)[C@H]3[C@H](C)O4)c12` [Example 605], the IC50 is 25 nM.

As to `C=C1CN2CC(=C)CC2(COc2cc3c4c(nc(-c5cc(O)cc6ccc(F)c(CC)c56)c(F)c4n2)OC[C@@H]2[C@@H]4CC[C@H](CN32)N4)C1` [compound 42], the IC50 was 169 nM.

Another data set addresses T1, P-glycoprotein (Pgp) (Homo sapiens, UniProt P08183).
T1 construct: expressed in transfected cells; host or cells: MDCK-MDR1 cells
The experiment in a line: MDCK-MDR1 Pgp assessment. To be noted: dog, MDCK-MDR1 cells, 37° C., read-out: Pgp Efflux Ratio (Pexact). Type of data set: in vitro ADME. Here is the method:
Efflux transport mediated by P-glycoprotein (Pgp) was assessed by MDCK-MDR1 cells. The final concentrations of test compounds and control compound were at 1 μM. The multi-well insert plate was incubated at 37° C. for 2 hours. In order to reliably measure passive permeability coefficients, Pexact was reported, which automatically corrects for loss of compound.
For the compound `C#Cc1c(F)ccc2cc(O)cc(-c3nc4c5c(cc(OC[C@@]67CCCN6CC(=C)C7)nc5c3F)N3C[C@H]5CC[C@H](N5)[C@H]3CO4)c12` [Example 2, 5-ethynyl-6-fluoro-4-((5aS,6S,9R)-1-fluoro-13-(((S)-2-methylenetetrahydro-1H-pyrrolizin-7a (5H)-yl)methoxy)-5a,6,7,8,9,10-hexahydro-5H-6,9-epiminoazepino[2′,1′: 3,4][1,4]oxazepino[5,6,7-de][1,6]naphthyridin-2-yl)naphthalen-2-ol], the efflux ratio at 2 h, 1 μM came to 5.37.

Regarding `C#Cc1c(F)ccc2cc(O)cc(-c3nc4c5c(cc(OC[C@@]67CCCN6C[C@H](F)C7)nc5c3F)N3C[C@H]5CC[C@H](N5)[C@H]3[C@H](C)O4)c12` [Example 565, 5-ethynyl-6-fluoro-4-((5S,5aS,6S,9R)-1-fluoro-13-(((2R,7aS)-2-fluorotetrahydro-1H-pyrrolizin-7a (5H)-yl)methoxy)-5-methyl-5a,6,7,8,9,10-hexahydro-5H-6,9-epiminoazepino[2′,1′: 3,4][1,4]oxazepino[5,6,7-de][1,6]naphthyridin-2-yl)naphthalen-2-ol], the efflux ratio at 2 h, 1 μM was found to be 5.25.

On to `C#Cc1c(F)ccc2cc(O)cc(-c3nc4c5c(cc(OCC67CCCN6CC(=C)C7)nc5c3F)N3C[C@H]5CC[C@H](N5)[C@H]3[C@H](C)O4)c12` (some centres unmarked) [Example 566], for which the efflux ratio at 2 h, 1 μM came to 13.

These data come from patent publication US20260263479A1, “KRAS G12D INHIBITORS AND USES THEREOF” (SUZHOU ZANRONG PHARMA LIMITED, priority 2023, published 2026).
